Reference: US20230295197A1, “STAT5 and STAT6 Degraders and Uses Thereof” (REGENTS OF THE UNIVERSITY OF MICHICAN, priority 2022, published 2023)
Where two headings read alike, the source gives them in different places.

Key:
STAT6 = target: T1, STAT6 (Homo sapiens, UniProt P42226); test: Immunoblotting (Western blot) analysis of STAT6 degradation efficiency of degraders in treated cells; type: cell-based
T1 construct: endogenous in cells; host or cells: MOLM-16, KU-812, SKNO1, MB231, L1236
T1 sequence (P42226 1-847): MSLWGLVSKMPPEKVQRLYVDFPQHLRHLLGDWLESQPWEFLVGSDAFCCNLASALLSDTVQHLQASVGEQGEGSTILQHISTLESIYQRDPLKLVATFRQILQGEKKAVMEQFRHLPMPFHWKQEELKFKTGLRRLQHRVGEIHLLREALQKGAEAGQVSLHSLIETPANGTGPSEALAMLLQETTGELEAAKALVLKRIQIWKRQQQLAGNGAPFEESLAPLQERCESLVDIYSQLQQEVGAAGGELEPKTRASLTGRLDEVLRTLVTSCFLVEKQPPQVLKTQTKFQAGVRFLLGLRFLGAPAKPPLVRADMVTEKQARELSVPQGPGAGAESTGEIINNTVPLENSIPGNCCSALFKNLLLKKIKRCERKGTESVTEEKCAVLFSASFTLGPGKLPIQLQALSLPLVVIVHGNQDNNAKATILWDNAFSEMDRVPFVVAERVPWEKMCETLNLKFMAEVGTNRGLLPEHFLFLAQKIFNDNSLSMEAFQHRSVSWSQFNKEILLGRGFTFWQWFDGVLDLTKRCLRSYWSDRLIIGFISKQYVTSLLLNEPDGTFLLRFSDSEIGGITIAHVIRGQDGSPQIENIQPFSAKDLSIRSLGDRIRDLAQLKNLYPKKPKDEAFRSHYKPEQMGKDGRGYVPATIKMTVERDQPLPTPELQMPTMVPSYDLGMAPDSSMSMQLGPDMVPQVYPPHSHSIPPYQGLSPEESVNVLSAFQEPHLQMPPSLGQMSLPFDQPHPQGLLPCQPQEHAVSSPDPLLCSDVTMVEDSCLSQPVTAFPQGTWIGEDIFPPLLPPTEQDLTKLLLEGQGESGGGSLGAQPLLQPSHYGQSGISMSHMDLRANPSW
Method in brief: (§1)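 Read-out: fluorescent IRDye 680RD/800CW secondaries imaged on an infrared scanner, with band intensities quantified by densitometry and GAPDH serving as loading control. Samples were RIPA lysates, BCA-normalised, from ~1 million treated cells.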

STAT5 = test: Immunoblotting (Western blot) analysis of STAT5 degradation efficiency of degraders in treated cells; type: cell-based
Method in brief: as §1

[1] = MOLM-16 cells, numeric bound, read-out: DC50 S6 MOLM-16
[2] = KU-812 cells, read-out: DC50 S5 KU-812
[3] = MOLM-16 cells, class symbols, read-out: DC50 S5 MOLM-16
[4] = SKNO1 cells, read-out: DC50 S5 SKNO1
[5] = MOLM-16 cells, numeric bound, read-out: DC50 S5 MOLM-16
[6] = MOLM-16 cells, class symbols, read-out: DC50 S6 MOLM-16

Row | Structure (SMILES) | DC50 (STAT6; [1]) [nM] | DC50 (STAT5; [2]) [nM] | DC50 (STAT5; [3]) [nM] | DC50 (STAT5; [4]) [nM] | DC50 (STAT6; KU-812 cells, read-out: DC50 S6 KU-812) [nM] | DC50 (STAT6; [6]) [nM] | DC50 (STAT6; SKNO1 cells, read-out: DC50 S6 SKNO1) [nM] | DC50 (STAT6; MB231 cells, read-out: DC50 S6 MB231) [nM] | DC50 (STAT5; [5]) [nM]
1 | CC(C)(C)[C@H](NC(=O)c1cc2cc(C(F)(F)P(=O)(O)O)ccc2s1)C(=O)N1CCC[C@H]1C(=O)N1C[C@@H](Oc2ccccc2)C[C@H]1C(=O)NCCCC#Cc1cccc2c1CN(C1CCC(=O)NC1=O)C2=O (stereo partly drawn) [Compound 658, ((2-(((2S)-1-((2S)-2-((2S,4S)-2-((5-(2-(2,6-dioxopiperidin-3-yl)-1-oxoisoindolin-4-yl)pent-4-yn-1-yl)carbamoyl)-4-phenoxypyrrolidine-1-carbonyl)pyrrolidin-1-yl)-3,3-dimethyl-1-oxobutan-2-yl)carbamoyl)benzo[b]thiophen-5-yl)difluoromethyl)phosphonic acid] | > 300 | – | – | – | – | – | – | – | > 300
2 | CC(C)(C)[C@H](NC(=O)c1cc2cc(C(F)(F)P(=O)(O)O)ccc2s1)C(=O)N1CCC[C@H]1C(=O)N(CCC(=O)NCCCC#Cc1cccc2c1CN(C1CCC(=O)NC1=O)C2=O)c1ccc2occc2c1 (stereo partly drawn) [Compound 661, ((2-(((2S)-1-((2S)-2-(benzofuran-5-yl(3-((5-(2-(2,6-dioxopiperidin-3-yl)-1-oxoisoindolin-4-yl)pent-4-yn-1-yl)amino)-3-oxopropyl)carbamoyl)pyrrolidin-1-yl)-3,3-dimethyl-1-oxobutan-2-yl)carbamoyl)benzo[b]thiophen-5-yl)difluoromethyl)phosphonic acid] | > 300 | 100 to 1000 | < 100 | 100 to 1000 | – | – | – | – | –
3 | CC(C)(C)[C@H](NC(=O)c1cc2cc(C(F)(F)P(=O)(O)O)ccc2s1)C(=O)N1CCC[C@H]1C(=O)N(CCC(=O)NCCCC#Cc1cccc2c1CN(C1CCC(=O)NC1=O)C2=O)c1ccc2c(c1)CCCO2 (stereo partly drawn) [Compound 669, ((2-(((2S)-1-((2S)-2-(chroman-6-yl(3-((5-(2-(2,6-dioxopiperidin-3-yl)-1-oxoisoindolin-4-yl)pent-4-yn-1-yl)amino)-3-oxopropyl)carbamoyl)pyrrolidin-1-yl)-3,3-dimethyl-1-oxobutan-2-yl)carbamoyl)benzo[b]thiophen-5-yl)difluoromethyl)phosphonic acid] | > 300 | – | – | > 10000 | – | – | – | – | > 300
4 | Cc1ncsc1-c1ccc([C@H](CC(=O)NCCCCCCC(=O)N[C@@H]2C[C@@H](C(=O)Nc3ncc(-c4ccccc4)s3)N(C(=O)[C@@H](NC(=O)c3cc4cc(C(F)(F)P(=O)(O)O)ccc4s3)C(C)(C)C)C2)NC(=O)[C@@H]2C[C@@H](O)CN2C(=O)[C@@H](NC(=O)C2(F)CC2)C(C)(C)C)cc1 [Compound 576, (difluoro(2-(((S)-1-((2S,4R)-4-(7-((S)-3-((2S,4R)-1-((S)-2-(1-fluorocyclopropane-1-carboxamido)-3,3-dimethylbutanoyl)-4-hydroxypyrrolidine-2-carboxamido)-3-(4-(4-methylthiazol-5-yl)phenyl)propanamido)heptanamido)-2-((5-phenylthiazol-2-yl)carbamoyl)pyrrolidin-1-yl)-3,3-dimethyl-1-oxobutan-2-yl)carbamoyl)benzo[b]thiophen-5-yl)methyl)phosphonic acid] | > 300 | – | – | – | – | – | – | – | > 300
5 | CN(CCCC#Cc1cccc2c1CN(C1CCC(=O)NC1=O)C2=O)C(=O)CCN(C(=O)[C@@H]1CCCN1C(=O)[C@@H](NC(=O)c1cc2cc(C(F)(F)P(=O)(O)O)ccc2s1)C(C)(C)C)c1ccc(-c2nccs2)cc1 (stereo partly drawn) [Compound 681, ((2-(((2S)-1-((2S)-2-((3-((5-(2-(2,6-Dioxopiperidin-3-yl)-1-oxoisoindolin-4-yl)pent-4-yn-1-yl)(methyl)amino)-3-oxopropyl)(4-(thiazol-2-yl)phenyl)carbamoyl)pyrrolidin-1-yl)-3,3-dimethyl-1-oxobutan-2-yl)carbamoyl)benzo[b]thiophen-5-yl)difluoromethyl)phosphonic acid] | – | 100 to 1000 | < 100 | 100 to 1000 | > 10000 | > 10000 | > 10000 | – | –

Continued, in another order:

Row | DC50 (STAT6; [1]) [nM] | DC50 (STAT5; [2]) [nM] | DC50 (STAT5; [3]) [nM] | DC50 (STAT5; [4]) [nM] | DC50 (STAT6; KU-812 cells, read-out: DC50 S6 KU-812) [nM] | DC50 (STAT6; [6]) [nM] | DC50 (STAT6; SKNO1 cells, read-out: DC50 S6 SKNO1) [nM] | DC50 (STAT6; MB231 cells, read-out: DC50 S6 MB231) [nM] | Structure (SMILES) | DC50 (STAT5; [5]) [nM]
6 | > 300 | 100 to 1000 | < 100 | 100 to 1000 | – | – | – | – | CN(CCCC#Cc1cccc2c1CN(C1CCC(=O)NC1=O)C2=O)C(=O)CCN(C(=O)[C@@H]1CCCN1C(=O)[C@@H](NC(=O)c1cc2cc(C(F)(F)P(=O)(O)O)ccc2s1)C(C)(C)C)c1ccc(Br)cc1 (stereo partly drawn) [Compound 665, ((2-(((2S)-1-((2S)-2-((4-bromophenyl)(3-((5-(2-(2,6-dioxopiperidin-3-yl)-1-oxoisoindolin-4-yl)pent-4-yn-1-yl)(methyl)amino)-3-oxopropyl)carbamoyl)pyrrolidin-1-yl)-3,3-dimethyl-1-oxobutan-2-yl)carbamoyl)benzo[b]thiophen-5-yl)difluoromethyl)phosphonic acid] | –
7 | > 300 | – | < 100 | – | – | – | – | – | CN(CCCC#Cc1cccc2c1CN(C1CCC(=O)NC1=O)C2=O)C(=O)CCN(C(=O)[C@@H]1CCCN1C(=O)[C@@H](NC(=O)c1cc2cc(C(F)(F)P(=O)(O)OCOC(=O)C(C)(C)C)ccc2s1)C(C)(C)C)c1ccc2sccc2c1 (stereo partly drawn) [Compound 671, ((((2-(((2S)-1-((2S)-2-(benzo[b]thiophen-5-yl(3-((5-(2-(2,6-dioxopiperidin-3-yl)-1-oxoisoindolin-4-yl)pent-4-yn-1-yl)(methyl)amino)-3-oxopropyl)carbamoyl)pyrrolidin-1-yl)-3,3-dimethyl-1-oxobutan-2-yl)carbamoyl)benzo[b]thiophen-5-yl)difluoromethyl)(hydroxy)phosphoryl)oxy)methyl pivalate] | –
8 | > 300 | 100 to 1000 | < 100 | 100 to 1000 | – | – | – | – | CC(C)(C)[C@H](NC(=O)c1cc2cc(C(F)(F)P(=O)(O)O)ccc2s1)C(=O)N1CCC[C@H]1C(=O)N(CCC(=O)NCCCC#Cc1cccc2c1CN(C1CCC(=O)NC1=O)C2=O)c1ccc2sccc2c1 (stereo partly drawn) [Compound 650, ((2-(((2S)-1-((2S)-2-(benzo[b]thiophen-5-yl(3-((5-(2-(2,6-dioxopiperidin-3-yl)-1-oxoisoindolin-4-yl)pent-4-yn-1-yl)amino)-3-oxopropyl)carbamoyl)pyrrolidin-1-yl)-3,3-dimethyl-1-oxobutan-2-yl)carbamoyl)benzo[b]thiophen-5-yl)difluoromethyl)phosphonic acid] | –
9 | > 300 | 100 to 1000 | < 100 | 100 to 1000 | – | – | – | – | CC(C)(C)[C@H](NC(=O)c1cc2cc(C(F)(F)P(=O)(O)O)ccc2s1)C(=O)N1CCC[C@H]1C(=O)N(CCC(=O)NCCCC#Cc1cccc2c1CN(C1CCC(=O)NC1=O)C2=O)c1ccc(-c2nccs2)cc1 (stereo partly drawn) [Compound 655, ((2-(((2S)-1-((2S)-2-((3-((5-(2-(2,6-dioxopiperidin-3-yl)-1-oxoisoindolin-4-yl)pent-4-yn-1-yl)amino)-3-oxopropyl)(4-(thiazol-2-yl)phenyl)carbamoyl)pyrrolidin-1-yl)-3,3-dimethyl-1-oxobutan-2-yl)carbamoyl)benzo[b]thiophen-5-yl)difluoromethyl)phosphonic acid] | –
10 | – | > 10000 | 1000 to 10000 | – | – | > 10000 | – | > 10000 | CC(C)(C)[C@H](NC(=O)c1cc2cc(C(F)(F)P(=O)(O)O)ccc2s1)C(=O)N1CCC[C@H]1C(=O)N(CCC(=O)NCCCCCCCCC#Cc1cccc2c1CN(C1CCC(=O)NC1=O)C2=O)c1ccc(Br)cc1 (stereo partly drawn) [Compound 403, ((2-(((2S)-1-((2S)-2-((4-bromophenyl)(3-((10-(2-(2,6-dioxopiperidin-3-yl)-1-oxoisoindolin-4-yl)dec-9-yn-1-yl)amino)-3-oxopropyl)carbamoyl)pyrrolidin-1-yl)-3,3-dimethyl-1-oxobutan-2-yl)carbamoyl)benzo[b]thiophen-5-yl)difluoromethyl)phosphonic acid] | –
